Laboratory results: article PMC9138991, “Effect of Trimethine Cyanine Dye- and Folate-Conjugation on the In Vitro Biological Activity of Proapoptotic Peptides” (Biomolecules, 2022)
Where a SMILES comes first, the peptide text is derived from it. [ ]: non-standard residue; d: D form. The star is where a group is joined. X1 = CN1/C(=C\C=C\C2=[N+](CCCCCC(=O)*)c3ccccc3C2(C)C)C(C)(C)c2ccccc21; Cha = N[C@@H](CC1CCCCC1)C(=O)O; dCha = N[C@H](CC1CCCCC1)C(=O)O

How the values were obtained:
Format in all cases: cell-based, human
HEK293 cells = experiment: Cell viability assay (CellTiter-Blue), HEK293 cells; conditions: 2 × 10^4 cells per well, DMEM + 10% FBS, 1% DMSO, 24 h at 37 °C, then CellTiter-Blue 4 h, three biological replicates fitted in Origin, standard error in brackets
Experimental: (§1) KB and MCF7 cells were kindly gifted by Prof. Arwyn T. Jones (Cardiff University), HEK293 cells were purchased from Public Health England, and SK-OV-3 cells were purchased from National Collection of Authenticated Cell Cultures (https://cell-bank.org.cn/). Cells were routinely tested for mycoplasma infection. KB and SK-OV-3 cells were maintained in T75 flasks at 37 °C in a 5% CO2 atmosphere in folic acid-depleted Roswell Park Memorial Institute (RPMI)-1640 medium supplemented with 10% (v/v) fetal bovine serum (FBS). MCF7 and HEK293 cells were maintained in T75 flasks at 37 °C in a 5% CO2 atmosphere in Dulbecco’s Modified Eagle’s medium (DMEM) supplemented with 10% (v/v) FBS. Cells were maintained at a sub-confluent monolayer and split at 80–85% confluency. For splitting, cells were washed with PBS, trypsinized in 1 mL of trypsin, and 200 µL of the 1000 µL trypsin cell suspension was re-suspended in 12 mL fresh DMEM containing 10% (v/v) FBS in a new T75 flask. KB and SK-OV-3 cells were used for biological experiments after being maintained for at least 10 days in folic acid-depleted RPMI-1640 medium.
(§2) SK-OV-3, MCF7, and HEK293 cells were seeded at a density of 2 × 10^4 cells per well in a Nunc™ MicroWell™ 96-well plate and grown at 37 °C in a 5% CO2 atmosphere in DMEM supplemented with 10% (v/v) FBS for 24 h. KB cells were seeded at a density of 7 × 10^3 cells per well in a 96-well plate and grown at 37 °C in a 5% CO2 atmosphere in folic acid-depleted RPMI-1640 medium supplemented with 10% (v/v) FBS for 24 h. Stock solutions of compounds 2–6 and 11–13 were obtained by dissolving the compounds in sterile deionized water. Compounds 1, and 7–10 were dissolved in pure DMSO. The stock solutions were diluted into the proper medium (according to the cell line tested) supplemented with 10% FBS to the appropriate concentration, and cells in each well were incubated with 100 µL of the solution. The solutions in each well were then adjusted to a concentration of 1% (v/v) DMSO. After 24 h at 37 °C, 20 µL of CellTiter-Blue™ was added to each well. The plate was incubated for another 4 h at 37 °C before analysis on a Perkin Elmer Victor X plate reader (excitation 531 nm; emission 595 nm). Each data point was calculated from a minimum of nine values resulting from three biological replicates (i.e., cells split from three different passages); each biological replicate is calculated from three technical replicates (i.e., cells split from the same passage). Value from media-only with CellTiter-Blue™ was set at 0% viability. This value was then subtracted from the values from cell-only (i.e., non-treated) wells with CellTiter-Blue™ in each biological replicate and set as 100% viability. For treatments of Cy3-containing compounds, blanks were generated with cell-free wells containing the compounds incubated for 24 h before addition of CellTiter-Blue™. The fluorescent reading for these wells was deducted from the treatment readings. Dose-response fitting curves were generated using Origin, version 2019b, OriginLab Corporation, Northampton, MA, USA (Figures S21–S24, Supplementary Materials).
(§3) Comparison of cytotoxicity fitting curves was achieved by applying the extra sum-of-squares F test, performed using GraphPad Prism version 9 for Windows, GraphPad Software, La Jolla, California, USA (https://www.graphpad.com/). […] Statistical analysis on the flow cytometry data was achieved by applying the unpaired two-tailed t-test test, performed using GraphPad Prism version 9 for Windows, GraphPad Software, La Jolla California USA, USA (https://www.graphpad.com/).
(§4) Cytotoxicity of 1–13 was evaluated using the CellTiter-Blue assay on KB, MCF7, SK-OV-3, and HEK293 cells. KB cells are derived from human cervical cancer, while SK-OV-3 cells are derived from human ovarian cancer. […] This feature is of particular relevance in anticancer applications, as it can be exploited for selective targeting and delivery. […]

MCF7 cells = experiment: Cell viability assay (CellTiter-Blue), MCF7 cells; conditions: MCF7 cells, 2 × 10^4 cells per well, DMEM + 10% FBS, 1% DMSO, 24 h at 37 °C, then CellTiter-Blue 4 h; three biological replicates fitted in Origin, standard error in brackets
Experimental: as §1, §2, §3, §4

[1] = tested on: mitochondria of SK-OV-3 cells; experiment: Confocal microscopy, colocalisation with MitoTracker Green FM, SK-OV-3 cells; conditions: 10 µM conjugate, 10 min at 37 °C; for Pearson's correlation coefficient of MitoTracker Green and Cy3 fluorescence: imaged at 20X; for Pearson's correlation coefficient of MitoTracker Green FM and Cy3 fluorescence: imaged at 63X
Experimental: (§5) SK-OV-3 and MCF7 were seeded at a density of 1 × 10^6 cells per well in glass-bottom culture dishes and grown at 37 °C in a 5% CO2 atmosphere in medium supplemented with 10% (v/v) FBS for 24 h. Cells were washed once with the RPMI-1640 medium supplemented with 10% (v/v) FBS before staining. Compounds 1, 5–10 were diluted into the RPMI-1640 medium supplemented with 10% (v/v) FBS to 10 μM and then added to the culture dishes, respectively. After 10-min incubation at 37 °C, cells were washed with RPMI-1640 medium supplemented with 10% (v/v) FBS. Cells were then treated with 50 nM MitoTracker Green FM and 10 μg/mL Hoechst33258 pre-formulated with RPMI-1640 medium supplemented with 10% (v/v) FBS and then incubated for another 10 min at 37 °C before analysis on ZEISS LSM 900 with Airyscan 2. The results were analyzed using Image J software (Figure 3 and Figures S4–S7 in Supplementary Materials).
(§6) Figure 3 Confocal microscopy images of SK-OV-3 and MCF7 cells treated with Cy3-containing conjugates. Cells were treated with 10 µM of the indicated conjugate for 10 min at 37 °C, washed, stained with 50 nM MitoTracker Green FM and 10 μg/mL Hoechst33258 for 10 min at 37 °C, washed, and imaged at 63X. Pearson’s correlation coefficients of MitoTracker Green FM and Cy3 fluorescence for compounds 1, 5, 6, 7, 8, 9, and 10 in SK-OV-3 and MCF cells are 0.75/0.64, 0.73/0.81, 0.91/0.61, 0.78/0.63, 0.85/0.69, 0.43/0.82, and 0.78/0.60, respectively. Excitation wavelengths for Hoechst33258, MitoTracker Green FM and Cy3 were set as 405, 488, and 561 nm, respectively. Scale bars denote 25 μm. Additional images, including the results of Hoechst33258 staining, are shown in Figure S4 (SK-OV-3 at 20X), Figure S5 (SK-OV-3 at 63X), Figure S6 (MCF7 at 20X) and Figure S7 (MCF7 at 63X), Supplementary Materials.

[2] = tested on: mitochondria of MCF7 cells; experiment: Confocal microscopy, colocalisation with MitoTracker Green FM, MCF7 cells; conditions: 10 µM conjugate, 10 min at 37 °C; for Pearson's correlation coefficient of MitoTracker Green and Cy3 fluorescence: imaged at 20X; for Pearson's correlation coefficient of MitoTracker Green FM and Cy3 fluorescence: imaged at 63X
Experimental: as §5, §6

KB cells = experiment: Cell viability assay (CellTiter-Blue), KB cells; conditions: 7 × 10^3 cells per well, folic acid-depleted RPMI-1640 + 10% FBS, 1% DMSO, 24 h at 37 °C, then CellTiter-Blue 4 h, three biological replicates fitted in Origin, standard error in brackets
Experimental: as §1, §2, §3, §4

SK-OV-3 cells = experiment: Cell viability assay (CellTiter-Blue), SK-OV-3 cells; conditions: 2 × 10^4 cells per well, medium + 10% FBS, 1% DMSO, 24 h at 37 °C, then CellTiter-Blue 4 h, three biological replicates fitted in Origin, standard error in brackets
Experimental: as §1, §2, §3, §4

Compound | EC50 (HEK293 cells) | EC50 (MCF7 cells) | Pearson's correlation coefficient of MitoTracker Green and Cy3 fluorescence [1] | Pearson's correlation coefficient of MitoTracker Green FM and Cy3 fluorescence [1] | Pearson's correlation coefficient of MitoTracker Green and Cy3 fluorescence [2] | Pearson's correlation coefficient of MitoTracker Green FM and Cy3 fluorescence [2] | EC50 (KB cells) | EC50 (SK-OV-3 cells)
CC(C)C[C@H](NC(=O)[C@H](CCCCN)NC(=O)CCCCC[N+]1=C(/C=C/C=C2\N(C)c3ccccc3C2(C)C)C(C)(C)c2ccccc21)C(=O)N[C@@H](C)C(=O)N[C@@H](CCCCN)C(=O)N[C@@H](CC(C)C)C(=O)N[C@@H](C)C(=O)N[C@@H](CCCCN)C(=O)N[C@@H](CCCCN)C(=O)N[C@@H](CC(C)C)C(=O)N[C@@H](C)C(=O)N[C@@H](CCCCN)C(=O)N[C@@H](CC(C)C)C(=O)N[C@@H](C)C(=O)N[C@@H](CCCCN)C(N)=O [Compound 5] | 44.3 µM | 7.37 µM | 0.76 | 0.73 | 0.80 | 0.81 | 6.7 µM | 11 µM
C[C@@H](NC(=O)[C@H](CC1CCCCC1)NC(=O)[C@@H](CCCCN)NC(=O)[C@@H](C)NC(=O)[C@@H](CC1CCCCC1)NC(=O)[C@@H](CCCCN)NC(=O)CCCCC[N+]1=C(/C=C/C=C2\N(C)c3ccccc3C2(C)C)C(C)(C)c2ccccc21)C(=O)N[C@H](CCCCN)C(=O)N[C@H](CCCCN)C(=O)N[C@@H](CC1CCCCC1)C(=O)N[C@H](C)C(=O)N[C@H](CCCCN)C(=O)N[C@H](CC1CCCCC1)C(=O)N[C@H](C)C(=O)N[C@H](CCCCN)C(N)=O [Compound 7] (X1-[dK][dCha][dA][dK][Cha][dA][dK][dK][Cha][dA][dK][dCha][dA][dK]-NH2) | 8.2 µM | 11.6 µM | 0.74 | 0.78 | 0.52 | 0.63 | 5.5 µM | 23 µM
CC(C)C[C@H](NC(=O)[C@H](CCCCN)NC(=O)[C@H](C)NC(=O)[C@H](CC(C)C)NC(=O)[C@H](CCCCN)NC(=O)[C@H](CCCCN)NC(=O)[C@H](C)NC(=O)[C@H](CC(C)C)NC(=O)[C@H](CCCCN)NC(=O)[C@H](C)NC(=O)[C@H](CC(C)C)NC(=O)[C@H](CCCCN)NC(=O)[C@H](CCCCNC(=O)[C@H](CCC(=O)O)NC(=O)c1ccc(NCc2cnc3nc(N)nc(O)c3n2)cc1)NC(=O)CCCCC[N+]1=C(/C=C/C=C2\N(C)c3ccccc3C2(C)C)C(C)(C)c2ccccc21)C(=O)N[C@@H](C)C(=O)N[C@@H](CCCCN)C(N)=O [Compound 8] | 35.6 µM | 49.4 µM | 0.53 | 0.85 | 0.60 | 0.69 | 38.8 µM | 8.8 µM
CC(C)C[C@@H](NC(=O)[C@@H](CCCCN)NC(=O)CCCCC[N+]1=C(/C=C/C=C2\N(C)c3ccccc3C2(C)C)C(C)(C)c2ccccc21)C(=O)N[C@H](C)C(=O)N[C@H](CCCCN)C(=O)N[C@H](CC(C)C)C(=O)N[C@H](C)C(=O)N[C@H](CCCCN)C(=O)N[C@H](CCCCN)C(=O)N[C@H](CC(C)C)C(=O)N[C@H](C)C(=O)N[C@H](CCCCN)C(=O)N[C@H](CC(C)C)C(=O)N[C@H](C)C(=O)N[C@H](CCCCN)C(N)=O [Compound 6] | 5.3 µM | 5.7 µM | 0.74 | 0.91 | 0.81 | 0.61 | 3.5 µM | 6.39 µM
